Positions of bridges follow the written chain, without caps; N, C: chain ends. Residues, ends and D or L forms follow the SMILES beside them.
Assays:
[1] = target: T1, rKv4.2 D284A (Rattus norvegicus, UniProt Q63881, D284A); test: Patch clamp of rKv4.2 mutant D284A; assay type: cell-based; settings: mean ± SEM
T1 construct: expressed in transfected cells; host or cells: HEK293T

[2] = target: T2, rKv4.2 D281A (Rattus norvegicus, UniProt Q63881, D281A); test: Patch clamp of rKv4.2 mutant D281A; assay type: cell-based; settings: mean ± SEM
T2 construct: expressed in transfected cells; host or cells: HEK293T
T2 sequence (Q63881 whole entry D281A): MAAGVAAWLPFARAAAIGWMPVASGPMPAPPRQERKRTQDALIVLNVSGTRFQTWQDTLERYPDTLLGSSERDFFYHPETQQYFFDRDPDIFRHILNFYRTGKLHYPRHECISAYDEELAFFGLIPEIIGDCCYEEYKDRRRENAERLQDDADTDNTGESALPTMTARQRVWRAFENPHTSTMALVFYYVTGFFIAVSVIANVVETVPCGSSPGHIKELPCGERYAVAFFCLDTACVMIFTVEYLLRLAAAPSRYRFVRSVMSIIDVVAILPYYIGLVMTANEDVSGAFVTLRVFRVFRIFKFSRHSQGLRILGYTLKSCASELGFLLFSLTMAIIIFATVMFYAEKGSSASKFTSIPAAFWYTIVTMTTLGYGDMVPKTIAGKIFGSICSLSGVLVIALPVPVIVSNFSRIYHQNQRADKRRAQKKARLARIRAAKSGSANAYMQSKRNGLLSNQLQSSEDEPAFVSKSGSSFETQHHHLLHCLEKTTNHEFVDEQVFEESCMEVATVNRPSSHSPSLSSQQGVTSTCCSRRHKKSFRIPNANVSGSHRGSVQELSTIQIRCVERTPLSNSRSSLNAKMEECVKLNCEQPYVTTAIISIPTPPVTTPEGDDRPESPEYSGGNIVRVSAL

[3] = target: T3, rKv4.2 T280A (Rattus norvegicus, UniProt Q63881, T280A); test: cell-based; settings: mean ± SEM
T3 construct: expressed in transfected cells; host or cells: HEK293T
T3 sequence (Q63881 1-630 T280A): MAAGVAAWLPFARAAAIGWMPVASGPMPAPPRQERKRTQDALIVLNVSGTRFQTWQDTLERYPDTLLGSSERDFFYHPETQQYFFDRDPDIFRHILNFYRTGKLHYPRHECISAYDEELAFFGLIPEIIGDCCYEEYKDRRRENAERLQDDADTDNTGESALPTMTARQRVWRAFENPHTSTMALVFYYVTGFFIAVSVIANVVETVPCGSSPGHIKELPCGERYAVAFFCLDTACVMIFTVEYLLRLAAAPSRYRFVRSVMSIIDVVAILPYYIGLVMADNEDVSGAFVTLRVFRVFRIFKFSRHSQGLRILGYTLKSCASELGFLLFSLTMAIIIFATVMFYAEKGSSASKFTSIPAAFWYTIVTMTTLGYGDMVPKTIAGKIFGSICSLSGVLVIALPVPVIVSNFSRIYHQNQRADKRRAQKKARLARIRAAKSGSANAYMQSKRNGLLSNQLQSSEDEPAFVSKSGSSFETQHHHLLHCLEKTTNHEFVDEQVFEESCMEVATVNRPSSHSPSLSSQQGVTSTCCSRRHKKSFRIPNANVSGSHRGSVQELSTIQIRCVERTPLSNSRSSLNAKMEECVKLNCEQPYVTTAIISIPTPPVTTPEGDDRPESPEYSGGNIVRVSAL

[4] = target: T4, rKv4.2 E283A (Rattus norvegicus, UniProt Q63881, E283A); test: Patch clamp of rKv4.2 mutant E283A; assay type: cell-based; settings: mean ± SEM
T4 construct: expressed in transfected cells; host or cells: HEK293T
T4 sequence (Q63881 whole entry E283A): as the sequence (Q63881 whole entry D281A) above, with A281D, E283A counted along it

[5] = target: T5, rKv4.2 D281N (Rattus norvegicus, UniProt Q63881, D281N); test: Patch clamp of rKv4.2 mutant D281N; assay type: cell-based; settings: mean ± SEM
T5 construct: expressed in transfected cells; host or cells: HEK293T
T5 sequence (Q63881 whole entry D281N): as the sequence (Q63881 whole entry D281A) above, with A281N counted along it

[6] = target: T6, mKv4.1 (Mus musculus, UniProt Q03719); test: Whole-cell patch clamp of mKv4.1 currents; assay type: cell-based; settings: mean ± S.E.M., n = 5, SEM
T6 construct: expressed in transfected cells; host or cells: HEK293T
T6 sequence (Q03719 whole entry): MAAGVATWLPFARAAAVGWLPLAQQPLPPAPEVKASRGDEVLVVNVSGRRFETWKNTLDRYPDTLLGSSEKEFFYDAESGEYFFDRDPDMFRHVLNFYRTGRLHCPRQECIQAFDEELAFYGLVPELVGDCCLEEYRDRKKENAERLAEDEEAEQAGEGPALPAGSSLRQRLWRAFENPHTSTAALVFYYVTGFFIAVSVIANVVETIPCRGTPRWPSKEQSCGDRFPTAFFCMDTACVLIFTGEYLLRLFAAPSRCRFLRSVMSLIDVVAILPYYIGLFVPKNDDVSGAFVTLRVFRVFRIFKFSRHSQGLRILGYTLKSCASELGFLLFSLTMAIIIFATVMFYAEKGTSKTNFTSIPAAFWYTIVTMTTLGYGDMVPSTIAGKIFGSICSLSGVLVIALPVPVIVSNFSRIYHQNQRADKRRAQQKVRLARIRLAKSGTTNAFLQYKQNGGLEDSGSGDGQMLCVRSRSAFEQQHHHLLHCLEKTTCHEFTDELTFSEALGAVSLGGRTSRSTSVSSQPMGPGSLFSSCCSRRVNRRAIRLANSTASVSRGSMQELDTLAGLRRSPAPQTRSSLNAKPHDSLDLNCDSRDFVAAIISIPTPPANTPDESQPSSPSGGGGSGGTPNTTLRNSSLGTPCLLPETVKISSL

[7] = target: hERG (Homo sapiens, UniProt Q12809); test: in vitro; settings: pH 7.4, SEM
Sequence of hERG (Q12809 whole entry): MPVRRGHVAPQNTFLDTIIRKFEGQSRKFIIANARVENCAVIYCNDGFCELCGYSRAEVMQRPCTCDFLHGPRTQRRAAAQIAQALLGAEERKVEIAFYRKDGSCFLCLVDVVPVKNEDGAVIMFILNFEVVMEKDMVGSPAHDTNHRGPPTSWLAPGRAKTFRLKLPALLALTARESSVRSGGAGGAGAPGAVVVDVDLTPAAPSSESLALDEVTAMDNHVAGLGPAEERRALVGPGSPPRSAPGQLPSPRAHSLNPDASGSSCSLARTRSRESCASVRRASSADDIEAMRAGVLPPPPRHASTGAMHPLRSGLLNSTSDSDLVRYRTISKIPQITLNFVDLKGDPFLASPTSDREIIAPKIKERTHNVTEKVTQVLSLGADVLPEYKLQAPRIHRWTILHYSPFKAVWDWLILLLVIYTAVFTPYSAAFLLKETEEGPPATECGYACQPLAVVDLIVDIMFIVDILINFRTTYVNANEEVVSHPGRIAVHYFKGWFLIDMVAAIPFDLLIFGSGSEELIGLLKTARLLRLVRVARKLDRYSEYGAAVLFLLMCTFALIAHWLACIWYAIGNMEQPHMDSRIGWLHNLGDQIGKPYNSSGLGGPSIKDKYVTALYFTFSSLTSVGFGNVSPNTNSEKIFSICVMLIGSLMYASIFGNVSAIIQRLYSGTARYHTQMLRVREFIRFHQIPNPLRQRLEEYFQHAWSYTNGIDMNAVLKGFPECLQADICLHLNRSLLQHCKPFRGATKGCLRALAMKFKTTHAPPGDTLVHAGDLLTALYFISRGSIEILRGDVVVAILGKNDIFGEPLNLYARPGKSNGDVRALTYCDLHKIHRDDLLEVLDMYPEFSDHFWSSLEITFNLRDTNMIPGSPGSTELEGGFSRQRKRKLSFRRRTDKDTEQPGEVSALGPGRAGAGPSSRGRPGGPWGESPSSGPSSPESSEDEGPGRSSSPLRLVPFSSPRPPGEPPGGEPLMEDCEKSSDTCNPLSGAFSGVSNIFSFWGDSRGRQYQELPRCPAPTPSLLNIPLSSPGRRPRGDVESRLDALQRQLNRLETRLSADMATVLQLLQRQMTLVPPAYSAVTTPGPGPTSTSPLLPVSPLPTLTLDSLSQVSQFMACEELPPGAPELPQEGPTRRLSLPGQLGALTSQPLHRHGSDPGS

[8] = target: T7, rKv2.1 (Rattus norvegicus, UniProt P15387); test: Whole-cell patch clamp of rKv2.1 currents; assay type: cell-based; settings: mean ± S.E.M., n = 6, SEM
T7 construct: expressed in transfected cells; host or cells: HEK293T
T7 sequence (P15387 whole entry): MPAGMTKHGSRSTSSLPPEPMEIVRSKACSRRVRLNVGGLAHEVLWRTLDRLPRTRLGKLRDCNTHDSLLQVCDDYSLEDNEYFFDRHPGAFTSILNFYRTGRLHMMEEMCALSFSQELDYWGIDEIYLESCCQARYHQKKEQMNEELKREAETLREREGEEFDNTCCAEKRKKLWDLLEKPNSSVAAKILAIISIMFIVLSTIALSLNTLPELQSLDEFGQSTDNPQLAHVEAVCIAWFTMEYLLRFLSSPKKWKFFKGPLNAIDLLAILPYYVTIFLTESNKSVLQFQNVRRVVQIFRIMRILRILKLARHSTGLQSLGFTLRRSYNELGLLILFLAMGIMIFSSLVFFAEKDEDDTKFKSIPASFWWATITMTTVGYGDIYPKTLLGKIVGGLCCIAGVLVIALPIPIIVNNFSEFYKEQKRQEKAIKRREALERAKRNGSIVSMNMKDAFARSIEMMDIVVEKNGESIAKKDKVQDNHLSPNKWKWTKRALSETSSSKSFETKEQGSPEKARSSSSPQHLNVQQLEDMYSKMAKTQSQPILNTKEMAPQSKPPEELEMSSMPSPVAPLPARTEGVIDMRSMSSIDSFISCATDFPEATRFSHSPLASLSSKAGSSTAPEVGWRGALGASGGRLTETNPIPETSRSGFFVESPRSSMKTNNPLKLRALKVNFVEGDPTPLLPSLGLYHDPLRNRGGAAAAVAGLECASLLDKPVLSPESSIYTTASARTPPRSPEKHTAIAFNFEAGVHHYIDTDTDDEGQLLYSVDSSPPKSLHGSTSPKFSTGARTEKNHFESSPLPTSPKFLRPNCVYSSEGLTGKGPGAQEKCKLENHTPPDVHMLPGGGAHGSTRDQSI

T1 sequence (Q63881 whole entry D284A): as the sequence (Q63881 whole entry D281A) above, with A281D, D284A counted along it

Which results are given for CC(C)C[C@H](NC(=O)[C@H](Cc1ccc(O)cc1)NC(=O)[C@@H](NC(=O)[C@H](CCCCN)NC(=O)[C@@H]1CSSC[C@@H]2NC(=O)[C@H](CCC(=O)O)NC(=O)[C@H](CC(N)=O)NC(=O)[C@H](CCCCN)NC(=O)CNC(=O)[C@@H]3CCCN3C(=O)[C@H]([C@@H](C)O)NC(=O)[C@@H]3CSSC[C@H](NC(=O)[C@H](C)NC(=O)[C@H](Cc4ccc(O)cc4)NC(=O)[C@H](CC(N)=O)NC(=O)[C@@H]4CCCN4C(=O)[C@H](CSSC[C@H](NC(=O)CN)C(=O)N[C@@H](CCCCN)C(=O)NCC(=O)N[C@@H](Cc4ccccc4)C(=O)NCC(=O)N[C@@H](CC(=O)O)C(=O)N[C@@H](CO)C(=O)N3)NC2=O)C(=O)N[C@@H](CO)C(=O)N[C@@H](CO)C(=O)N[C@@H](CCCCN)C(=O)N[C@@H](Cc2c[nH]cn2)C(=O)N[C@@H](CCCCN)C(=O)N[C@@H](Cc2c[nH]c3ccccc23)C(=O)N1)C(C)C)C(N)=O [HNTX-III] (H-GCKGFGDSCTPGKNECCPNYACSSKHKWCKVYL-NH2; disulfide 2-17, 9-22, 16-29)?
IC50 [1]: 491 ± 72 nM; IC50 [2]: 214 ± 76 nM; IC50 [3]: 38 ± 14 nM; IC50 [4]: 987 ± 303 nM; IC50 [5]: 131 ± 32 nM

With CSCC[C@@H]1NC(=O)CNC(=O)[C@H](CCC(=O)O)NC(=O)[C@@H]2CSSC[C@H](NC(=O)[C@@H](N)Cc3ccc(O)cc3)C(=O)N[C@@H](CCC(N)=O)C(=O)N[C@@H](CCCCN)C(=O)N[C@@H](Cc3c[nH]c4ccccc34)C(=O)N[C@@H](CCSC)C(=O)N[C@@H](Cc3c[nH]c4ccccc34)C(=O)N[C@@H]([C@@H](C)O)C(=O)N[C@H]3CSSC[C@H](NC(=O)[C@H](C(C)C)NC1=O)C(=O)N[C@@H](CCCNC(=N)N)C(=O)N[C@@H](CC(C)C)C(=O)N[C@@H](Cc1c[nH]c4ccccc14)C(=O)N[C@H](C(=O)N[C@@H](CCCCN)C(=O)N[C@@H](CCCCN)C(=O)N[C@@H](CCCCN)C(=O)N[C@@H](CC(C)C)C(=O)N[C@@H](Cc1c[nH]c4ccccc14)C(=O)O)CSSC[C@H](NC(=O)[C@H](CCCCN)NC(=O)[C@H](CCCNC(=N)N)NC(=O)[C@H](CCC(=O)O)NC(=O)[C@H](CO)NC(=O)[C@H](CC(=O)O)NC3=O)C(=O)N2 [ProTx-II] as the compound, how does the IC50 [6] read?
Its IC50 is 38.1 ± 5.3 nM.

What about the IC50 [7] of the same compound?
The IC50 was 29.7 ± 2.8 nM.

And the IC50 [8]?
Its IC50 is 78.7 ± 9 nM.

What about the IC50 [3] of the same compound?
Its IC50 is 89 ± 21 nM.

Source: PMC11558128 (Advanced Science, 2024)
